The values below are quoted from earlier work in US11338162B2 (priority 2013, dated 2022).

One data set has as its system Lepomis macrochirus. Conditions: in vivo.
Data set [1] concerns Leuciscus idus (Golden orfe). To be noted: in vivo.
For data set [2], the system named is Desmodesmus subspicatus (green algae). Conditions: 24 h.
The next data set deals with rat. Conditions: in vivo.
A further data set concerns Pseudomonas putida. Conditions: 16 h.
The test system of the next data set is rabbit. To be noted: in vivo, topical or ocular.
Data set [3] deals with Daphnia magna (Water flea). Conditions: in vivo.

For the molecule `CCCCOCCOCCO` [DGME, diethylene glycol monobutyl ether], the “Toxicity to fish LC50” value in the data set with Lepomis macrochirus was 1,300 mg/l. For the same molecule, the “Toxicity to fish LC50” value in data set [1] is given as >1,000 mg/l. For the same molecule, the “Toxicity to algae IC50 - Desmodesmus subspicatus (green algae)” value in data set [2] is over 100 mg/l-24 h. The “LD50 Oral - rat” value with rat is given as 5,660 mg/kg. Also, the “Toxicity to bacteria LC50 - Pseudomonas putida” value in the data set with Pseudomonas putida is 1,170 mg/l-16 h. In addition, in the data set with rabbit, the “LD50 Dermal - rabbit” value is given as 2,700 mg/kg and the “dermal LD50 in rabbits” value was 2700 mg/kg. Besides, the “Toxicity to daphnia and other aquatic invertebrates LC50 - Daphnia magna (Water flea)” value in data set [3] is on record as 1,950 mg/l.
